Data: ChEMBL document CHEMBL1201862, “PubChem BioAssay data set” (2004)
Active and inactive are the calls of the source.

Key:
[1] = target: T1, DNA dC->dU-editing enzyme APOBEC-3A (Homo sapiens, UniProt P31941); assay: SAR analysis of small molecule inhibitors of APOBEC3A DNA Deaminase via a fluorescence-based single-stranded DNA deaminase assay.; type: functional; details: read-out: IC50_Mean
[2] = target: T1, DNA dC->dU-editing enzyme APOBEC-3A; assay: SAR analysis of small molecule inhibitors of APOBEC3A DNA Deaminase via a fluorescence-based single-stranded DNA deaminase assay - Set 2.; type: functional; details: read-out: IC50_Mean
[3] = target: T2, DNA dC->dU-editing enzyme APOBEC-3G (Homo sapiens, UniProt Q9HC16); assay: APOBEC3G deaminase inhibitors, SAR follow-up, biochemical, fluorescence, single-stranded DNA substrate (AID 602136); type: functional; details: read-out: IC50_Mean
[4] = target: T2, DNA dC->dU-editing enzyme APOBEC-3G; assay: SAR analysis of small molecule inhibitors of APOBEC3G DNA Deaminase via a fluorescence-based single-stranded DNA deaminase assay - Set 2.; type: functional; details: read-out: IC50_Mean
[5] = target: Sphingosine 1-phosphate receptor 1 (Homo sapiens, UniProt P21453); assay: Late-stage fluorescence-based dose-response cell-based counterscreen assay to identify agonists of the Sphingosine 1-Phosphate Receptor 4 (S1P4): Sphingosine 1-Phosphate Receptor 1 (S1P1) agonist assay Set 2.; type: functional
[6] = target: Sphingosine 1-phosphate receptor 2 (Homo sapiens, UniProt O95136); assay: S1P2 receptor agonists, human, late-stage follow-up, counter-screen for S1P4 agonist project, cell-based, fluorescence, set 2 (AID 504873); type: functional
[7] = target: Sphingosine 1-phosphate receptor 5 (Homo sapiens, UniProt Q9H228); assay: S1P5 receptor agonists, human, late-stage follow-up, counter-screen for S1P4 agonist project, cell-based, fluorescence, set 2 (AID 504867); type: functional
[8] = target: Sphingosine 1-phosphate receptor 3 (Homo sapiens, UniProt Q99500); assay: Late-stage fluorescence-based dose-response cell-based counterscreen assay to identify agonists of the Sphingosine 1-Phosphate Receptor 4 (S1P4): Sphingosine 1-Phosphate Receptor 3 (S1P3) agonist assay Set 2.; type: functional
[9] = target: Vascular endothelial growth factor receptor 2 (Homo sapiens, UniProt P35968); type: functional
Aurora kinase B = Aurora kinase B (Homo sapiens, UniProt Q96GD4); type: functional
LIM domain kinase 1 = LIM domain kinase 1 (Homo sapiens, UniProt P53667); assay: Navigating the Kinome. Panel member name: LIMK1; type: functional
[10] = target: Serine/threonine-protein kinase pim-1 (Homo sapiens, UniProt P11309); type: functional
[11] = target: T3, Orexin/Hypocretin receptor type 1 (Homo sapiens, UniProt O43613); assay: Homogeneous Time Resolved Fluorescence (HTRF)-based cell-based high throughput dose response assay for antagonists of the orexin 1 receptor (OX1R; HCRTR1). [Related pubchem assays (depositor defined):AID434989, AID435008, AID463079, AID485270, AID492963, AID492964, AID492965, AID493232, AID504717, AID504718]; type: functional
Orexin receptor type 2 [12] = target: T4, Orexin receptor type 2 (Homo sapiens, UniProt O43614); assay: Counterscreen assay for antagonists of the orexin 1 receptor (OX1R; HCRTR1): Fluorescence-based cell-based dose response assay for antagonists of the orexin 2 receptor (OX2R; HCRTR2), run by assay provider.; type: functional
[13] = target: T3, Orexin/Hypocretin receptor type 1; assay: Fluorescence-based cell-based high throughput dose response assay for antagonists of the orexin 1 receptor (OX1R; HCRTR1). [Related pubchem assays (depositor defined):AID434989, AID435008, AID463079, AID485270, AID492963, AID492964, AID492965, AID493232, AID504717, AID504718]; type: functional
[14] = (§1) Counterscreen for antagonists of the orexin 1 receptor (OX1R; HCRTR1): Fluorescence-based cell-based high throughput dose response assay to identify antagonists of the parental CHO cell line. [Related pubchem assays (depositor defined):AID434989, AID435008, AID463079, AID485270, AID492963, AID492964, AID492965, AID493232, AID504699, AID504701]; type: functional
Orexin receptor type 2 [15] = target: T4, Orexin receptor type 2; assay: Counterscreen assay for antagonists of the orexin 1 receptor (OX1R; HCRTR1): Homogeneous Time Resolved Fluorescence (HTRF)-based cell-based dose response assay for antagonists of the orexin 2 receptor (OX2R; HCRTR2), run by assay provider.; type: functional
CHO-K1 = assay: as §1, with “Homogeneous time resolved fluorescence (HTRF)-based” for “Fluorescence-based”, “cell-based” for “cell-based high throughput”, “CHO-K1” for “CHO”; type: functional; details: Cricetulus griseus;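 also: potency for inhibition of ATP-stimulated IP1 production as antagonists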
[16] = target: Ribosomal protein S6 kinase alpha-3 (Homo sapiens, UniProt P51812); type: functional;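 also: measured within a kinome-wide profiling panel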
[17] = target: RAC-gamma serine/threonine-protein kinase (Homo sapiens, UniProt Q9Y243); type: functional
[18] = target: Cyclin-dependent kinase 2 (Homo sapiens, UniProt P24941); type: functional;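 also: CDK2 measured as one member of a broad kinome profiling panel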
Ephrin type-A receptor 2 = Ephrin type-A receptor 2 (Homo sapiens, UniProt P29317); type: functional;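 also: EPHA2 tested as one member of a kinome-wide kinase panel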
[19] = target: Cyclin-dependent kinase 1 (Homo sapiens, UniProt P06493); type: functional;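 also: Kinome-wide panel profiling, with the target listed as panel member CDC2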
[20] = target: Serine/threonine-protein kinase PLK3 (Homo sapiens, UniProt Q9H4B4); type: functional
[21] = target: MAP kinase-activated protein kinase 2 (Homo sapiens, UniProt P49137); type: functional;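 also: measured as one member of a kinome-wide kinase panel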
[22] = target: Serine/threonine-protein kinase Chk1 (Homo sapiens, UniProt O14757); type: functional;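 also: measured as one member of a kinome-wide kinase profiling panel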
[23] = target: Casein kinase II subunit alpha (Homo sapiens, UniProt P68400); type: functional
Aurora kinase A = Aurora kinase A (Homo sapiens, UniProt O14965); type: functional;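 also: value from the Navigating the Kinome kinase panel profiling, panel entry STK6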
[24] = target: Serine/threonine-protein kinase Chk2 (Homo sapiens, UniProt O96017); type: functional;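 also: CHEK2 entry within a kinome-wide screening panel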
[25] = target: RAC-alpha serine/threonine-protein kinase (Homo sapiens, UniProt P31749); type: functional;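 also: AKT1 affinity measured as one member of a kinome-wide kinase profiling panel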
[26] = target: cAMP-dependent protein kinase catalytic subunit alpha (Homo sapiens, UniProt P17612); type: functional
[27] = target: 5'-AMP-activated protein kinase catalytic subunit alpha-1 (Homo sapiens, UniProt Q13131); type: functional
[28] = target: Serine/threonine-protein kinase PLK1 (Homo sapiens, UniProt P53350); type: functional;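 also: PLK1 measured as one member of a kinome-wide profiling panel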
[29] = target: Protein kinase C delta type (Homo sapiens, UniProt Q05655); type: functional
[30] = target: MAP/microtubule affinity-regulating kinase 3 (Homo sapiens, UniProt P27448); type: functional;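 also: MARK3 affinity measured as one member of a kinome panel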
[31] = target: Ribosomal protein S6 kinase beta-1 (Homo sapiens, UniProt P23443); type: functional;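 also: measured as one member of a kinome-wide profiling panel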
[32] = target: Mast/stem cell growth factor receptor Kit (Homo sapiens, UniProt P10721); type: functional;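 also: KIT entry within a kinase panel assay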
[33] = target: Serine/threonine-protein kinase PAK 4 (Homo sapiens, UniProt O96013); type: functional;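 also: value obtained within a kinome profiling panel in which PAK4 was one of the panel members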
[34] = target: Protein kinase C gamma type (Homo sapiens, UniProt P05129); type: functional
[35] = target: Protein kinase C zeta type (Homo sapiens, UniProt Q05513); type: functional;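 also: measured as one member of a broad kinase profiling panel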
[36] = target: Glycogen synthase kinase-3 beta (Homo sapiens, UniProt P49841); type: functional;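 also: value comes from a broad kinome profiling panel, with GSK3B as the panel member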
[37] = target: Serine/threonine-protein kinase MRCK alpha (Homo sapiens, UniProt Q5VT25); type: functional
[38] = target: Mitogen-activated protein kinase 8 (Homo sapiens, UniProt P45983); type: functional;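 also: value comes from one member of a kinome-wide kinase profiling panel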
[39] = target: Serine/threonine-protein kinase D3 (Homo sapiens, UniProt O94806); type: functional;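 also: determined within a kinase panel screen, with PRKCN as the panel member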
[40] = target: Protein disulfide-isomerase (Homo sapiens, UniProt P07237); assay: PDI inhibitors, insulin aggregation turbidity, dose response, biochemical, absorbance, cherry-picked samples (AID 602350); type: functional
[41] = A cell-based HTS for delayed death inhibitors of the malarial parasite plastid Measured in Microorganism System Using Plate Reader - 2126-01_Inhibitor_Dose_DryPowder_Activity.; type: functional, organism-based
[42] = A cell-based HTS for delayed death inhibitors of the malarial parasite plastid Measured in Microorganism System Using Plate Reader - 2126-02_Inhibitor_Dose_DryPowder_Activity.; type: functional, organism-based
[43] = target: Tyrosine-protein kinase Lyn (Homo sapiens, UniProt P07948); type: functional;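 also: lyn as one member of a kinase panel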
[44] = target: Inhibitor of nuclear factor kappa-B kinase subunit beta (Homo sapiens, UniProt O14920); type: functional
[45] = target: Receptor tyrosine-protein kinase erbB-4 (Homo sapiens, UniProt Q15303); type: functional;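 also: ERBB4 member of a kinome-wide kinase profiling panel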
[46] = target: Fibroblast growth factor receptor 3 (Homo sapiens, UniProt P22607); type: functional
[47] = target: Tyrosine-protein kinase Blk (Homo sapiens, UniProt P51451); type: functional;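 also: obtained as one member of a kinome-wide kinase assay panel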
[48] = target: 3-phosphoinositide-dependent protein kinase 1 (Homo sapiens, UniProt O15530); type: functional;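 also: value comes from the Navigating the Kinome panel, PDPK1 member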
[49] = target: Fibroblast growth factor receptor 1 (Homo sapiens, UniProt P11362); type: functional
[50] = target: Multidrug resistance protein CDR2 (Candida albicans (strain SC5314 / ATCC MYA-2876) (Yeast), UniProt P78595); assay: CaCDR2 efflux pump inhibitors in yeast, dose response, S. cerevisiae AD1-8u, singleplex, Cherry Pick1 hits (AID 588604); type: functional

Sequence of Serine/threonine-protein kinase pim-1 (P11309 whole entry): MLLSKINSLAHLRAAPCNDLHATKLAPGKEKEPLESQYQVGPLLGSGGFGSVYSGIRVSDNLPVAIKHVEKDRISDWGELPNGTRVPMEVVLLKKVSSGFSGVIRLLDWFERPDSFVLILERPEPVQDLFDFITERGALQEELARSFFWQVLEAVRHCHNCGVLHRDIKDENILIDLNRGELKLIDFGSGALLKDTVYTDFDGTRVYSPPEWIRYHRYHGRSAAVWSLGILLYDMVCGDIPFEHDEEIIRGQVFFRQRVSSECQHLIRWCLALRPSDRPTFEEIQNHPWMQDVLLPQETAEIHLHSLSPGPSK
Sequence of Serine/threonine-protein kinase Chk2 (O96017 whole entry): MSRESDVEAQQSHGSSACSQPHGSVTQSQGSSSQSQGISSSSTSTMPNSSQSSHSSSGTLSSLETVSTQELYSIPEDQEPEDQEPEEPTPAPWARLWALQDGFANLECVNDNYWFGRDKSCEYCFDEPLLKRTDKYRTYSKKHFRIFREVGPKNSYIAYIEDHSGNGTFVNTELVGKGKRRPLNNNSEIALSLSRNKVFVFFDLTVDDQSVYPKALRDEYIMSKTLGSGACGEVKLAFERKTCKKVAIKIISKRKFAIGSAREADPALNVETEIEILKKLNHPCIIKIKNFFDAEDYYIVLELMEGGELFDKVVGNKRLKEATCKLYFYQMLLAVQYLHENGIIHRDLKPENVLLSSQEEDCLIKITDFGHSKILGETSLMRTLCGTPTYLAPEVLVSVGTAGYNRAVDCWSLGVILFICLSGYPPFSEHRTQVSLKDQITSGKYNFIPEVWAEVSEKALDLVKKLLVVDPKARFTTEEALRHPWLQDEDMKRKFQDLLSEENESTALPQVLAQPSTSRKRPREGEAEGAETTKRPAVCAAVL
Sequence of MAP/microtubule affinity-regulating kinase 3 (P27448 whole entry): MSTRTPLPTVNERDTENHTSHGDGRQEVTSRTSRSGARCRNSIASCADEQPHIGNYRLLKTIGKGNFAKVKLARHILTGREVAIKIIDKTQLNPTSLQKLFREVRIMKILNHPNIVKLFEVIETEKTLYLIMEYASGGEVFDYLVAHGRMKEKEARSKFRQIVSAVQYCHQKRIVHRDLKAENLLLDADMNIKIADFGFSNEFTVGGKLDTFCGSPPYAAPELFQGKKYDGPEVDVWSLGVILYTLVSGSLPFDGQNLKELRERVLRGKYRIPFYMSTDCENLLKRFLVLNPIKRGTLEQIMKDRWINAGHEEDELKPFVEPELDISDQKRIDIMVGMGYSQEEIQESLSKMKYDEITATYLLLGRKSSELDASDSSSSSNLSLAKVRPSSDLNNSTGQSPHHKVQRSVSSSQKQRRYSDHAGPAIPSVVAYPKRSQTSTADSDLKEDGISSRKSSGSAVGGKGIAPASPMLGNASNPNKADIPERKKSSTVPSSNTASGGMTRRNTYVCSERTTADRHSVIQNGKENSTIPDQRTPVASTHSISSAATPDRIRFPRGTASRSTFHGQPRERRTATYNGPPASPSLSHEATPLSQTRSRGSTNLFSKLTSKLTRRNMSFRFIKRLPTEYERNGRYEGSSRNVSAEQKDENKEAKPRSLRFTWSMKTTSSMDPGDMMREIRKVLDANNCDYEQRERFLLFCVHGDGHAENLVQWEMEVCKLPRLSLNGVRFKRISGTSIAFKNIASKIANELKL
Sequence of Serine/threonine-protein kinase PAK 4 (O96013 whole entry): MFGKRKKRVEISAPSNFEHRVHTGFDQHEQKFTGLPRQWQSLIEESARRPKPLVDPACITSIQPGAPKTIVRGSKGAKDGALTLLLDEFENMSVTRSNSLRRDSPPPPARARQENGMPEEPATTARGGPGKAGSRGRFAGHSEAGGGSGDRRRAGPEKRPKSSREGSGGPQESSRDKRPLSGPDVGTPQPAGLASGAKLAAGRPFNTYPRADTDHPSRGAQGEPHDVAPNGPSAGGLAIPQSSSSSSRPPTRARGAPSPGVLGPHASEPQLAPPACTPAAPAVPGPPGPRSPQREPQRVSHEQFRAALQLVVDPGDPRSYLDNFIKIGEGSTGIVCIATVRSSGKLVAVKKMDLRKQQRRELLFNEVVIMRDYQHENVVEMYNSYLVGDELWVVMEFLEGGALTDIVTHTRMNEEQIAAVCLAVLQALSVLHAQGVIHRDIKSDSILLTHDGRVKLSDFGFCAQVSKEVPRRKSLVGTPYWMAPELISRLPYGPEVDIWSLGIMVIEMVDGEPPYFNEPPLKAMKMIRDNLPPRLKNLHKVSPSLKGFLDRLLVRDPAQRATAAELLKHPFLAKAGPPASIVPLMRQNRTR
Sequence of RAC-gamma serine/threonine-protein kinase (Q9Y243 whole entry): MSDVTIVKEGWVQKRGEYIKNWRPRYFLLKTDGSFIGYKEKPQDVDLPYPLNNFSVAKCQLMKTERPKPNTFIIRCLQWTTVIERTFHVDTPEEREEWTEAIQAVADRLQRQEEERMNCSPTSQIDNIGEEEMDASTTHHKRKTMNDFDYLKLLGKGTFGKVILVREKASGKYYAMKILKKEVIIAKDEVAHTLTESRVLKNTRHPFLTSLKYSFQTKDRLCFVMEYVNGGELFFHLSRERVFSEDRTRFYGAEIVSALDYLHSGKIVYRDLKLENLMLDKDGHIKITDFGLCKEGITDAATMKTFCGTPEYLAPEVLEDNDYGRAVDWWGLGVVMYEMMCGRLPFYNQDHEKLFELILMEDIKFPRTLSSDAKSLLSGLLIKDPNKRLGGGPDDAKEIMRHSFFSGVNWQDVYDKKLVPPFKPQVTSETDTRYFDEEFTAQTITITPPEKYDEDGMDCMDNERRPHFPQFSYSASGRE
Sequence of Cyclin-dependent kinase 1 (P06493 whole entry): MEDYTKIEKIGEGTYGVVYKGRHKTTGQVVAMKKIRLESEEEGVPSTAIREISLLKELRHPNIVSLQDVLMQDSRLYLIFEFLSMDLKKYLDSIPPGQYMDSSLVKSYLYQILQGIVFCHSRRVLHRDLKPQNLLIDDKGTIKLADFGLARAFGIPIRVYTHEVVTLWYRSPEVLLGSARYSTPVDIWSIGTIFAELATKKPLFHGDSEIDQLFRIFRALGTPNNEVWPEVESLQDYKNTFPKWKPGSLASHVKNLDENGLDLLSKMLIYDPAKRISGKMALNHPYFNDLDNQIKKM
T4 sequence (O43614 whole entry): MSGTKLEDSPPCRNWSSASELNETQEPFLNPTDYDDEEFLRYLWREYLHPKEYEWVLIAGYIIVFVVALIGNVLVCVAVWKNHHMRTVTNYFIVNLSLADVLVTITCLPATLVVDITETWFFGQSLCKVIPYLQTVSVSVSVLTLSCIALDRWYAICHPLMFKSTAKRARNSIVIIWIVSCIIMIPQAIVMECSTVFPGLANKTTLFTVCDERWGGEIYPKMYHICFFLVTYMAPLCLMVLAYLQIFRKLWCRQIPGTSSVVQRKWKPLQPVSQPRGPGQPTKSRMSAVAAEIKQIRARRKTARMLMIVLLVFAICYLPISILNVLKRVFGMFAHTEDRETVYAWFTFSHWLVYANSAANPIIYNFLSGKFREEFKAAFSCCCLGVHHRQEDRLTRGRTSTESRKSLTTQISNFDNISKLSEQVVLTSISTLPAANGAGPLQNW
Sequence of MAP kinase-activated protein kinase 2 (P49137 whole entry): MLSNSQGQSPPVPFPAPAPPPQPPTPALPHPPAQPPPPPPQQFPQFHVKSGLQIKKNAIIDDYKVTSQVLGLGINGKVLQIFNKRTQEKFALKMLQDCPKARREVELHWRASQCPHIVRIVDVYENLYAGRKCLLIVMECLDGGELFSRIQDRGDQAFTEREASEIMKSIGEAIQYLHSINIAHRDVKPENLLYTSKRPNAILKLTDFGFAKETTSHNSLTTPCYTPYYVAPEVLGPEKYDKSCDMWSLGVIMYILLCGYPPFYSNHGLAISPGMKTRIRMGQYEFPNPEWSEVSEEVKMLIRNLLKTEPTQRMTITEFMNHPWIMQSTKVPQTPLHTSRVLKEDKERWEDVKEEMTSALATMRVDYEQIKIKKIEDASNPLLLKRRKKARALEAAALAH
T3 sequence (O43613 whole entry): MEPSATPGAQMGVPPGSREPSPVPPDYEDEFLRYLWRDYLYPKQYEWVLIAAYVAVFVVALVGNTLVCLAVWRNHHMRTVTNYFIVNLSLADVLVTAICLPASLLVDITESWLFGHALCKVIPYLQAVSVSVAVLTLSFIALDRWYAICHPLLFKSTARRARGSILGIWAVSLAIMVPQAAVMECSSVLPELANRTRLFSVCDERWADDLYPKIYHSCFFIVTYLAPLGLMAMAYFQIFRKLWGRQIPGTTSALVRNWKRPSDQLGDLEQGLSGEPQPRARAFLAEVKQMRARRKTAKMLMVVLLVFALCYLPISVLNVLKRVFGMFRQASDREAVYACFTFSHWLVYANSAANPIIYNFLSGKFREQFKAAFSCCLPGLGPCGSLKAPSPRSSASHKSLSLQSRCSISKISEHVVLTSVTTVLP
Sequence of Protein kinase C delta type (Q05655 whole entry): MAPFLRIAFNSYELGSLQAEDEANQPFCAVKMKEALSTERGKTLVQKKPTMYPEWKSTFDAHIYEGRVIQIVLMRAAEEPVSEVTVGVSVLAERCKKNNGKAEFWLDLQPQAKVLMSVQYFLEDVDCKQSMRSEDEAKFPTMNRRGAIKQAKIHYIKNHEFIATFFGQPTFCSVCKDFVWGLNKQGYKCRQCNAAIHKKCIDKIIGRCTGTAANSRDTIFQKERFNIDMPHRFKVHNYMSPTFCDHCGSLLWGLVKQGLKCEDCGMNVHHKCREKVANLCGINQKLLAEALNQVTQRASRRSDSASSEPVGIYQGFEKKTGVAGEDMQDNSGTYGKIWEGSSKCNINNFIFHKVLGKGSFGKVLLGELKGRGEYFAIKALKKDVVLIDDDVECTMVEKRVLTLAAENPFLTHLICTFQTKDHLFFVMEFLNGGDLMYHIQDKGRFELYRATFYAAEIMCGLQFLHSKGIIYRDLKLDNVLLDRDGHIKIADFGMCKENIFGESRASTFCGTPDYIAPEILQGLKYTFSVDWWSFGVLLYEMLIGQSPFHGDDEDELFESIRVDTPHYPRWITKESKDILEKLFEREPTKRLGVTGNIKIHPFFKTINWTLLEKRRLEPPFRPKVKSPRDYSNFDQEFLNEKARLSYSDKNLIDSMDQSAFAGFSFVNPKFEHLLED

With COc1cc(C=Nn2c(S)nnc2-c2[nH]nc3c2CCC3)ccc1O the IC50 [1] was > 99 µM (inactive), the IC50 [2] was > 99 µM (inactive) and the IC50 [3] was 0.808 µM (active). The IC50 [4] was 0.732 µM (active).

In the case of C/N=C1/S/C(=C/c2cc(C)n(Cc3ccccc3)c2C)C(=O)N1C, the EC50 [5] is reported as 0.72 µM (active), the EC50 [6] is reported as 3.65 µM (active) and the EC50 [7] is reported as 0.144 µM (active). For the same compound, the EC50 [8] was > 25 µM (inactive).

With COc1cc(Nc2ncnc(Nc3cc[nH]n3)n2)cc(OC)c1OC the Ki [9] was 3.98 µM (active) and the Ki (Aurora kinase B) was 0.316 µM (active).

With COc1ccccc1NC(=O)c1cnn2c(-c3ccccc3)ccnc12 the Ki (LIM domain kinase 1) was 2.51 µM (active) and the Ki [10] was 5.01 µM (active).

For CC(=O)Nc1cccc(OCC(=O)NC(C)c2ccc3ccccc3c2)c1 (stereo not drawn), the IC50 [11] was 0.623 µM (active), the IC50 (Orexin receptor type 2 [12]) was 30 µM (inactive) and the IC50 [13] was 9.01 µM (active). The IC50 [14] was > 49.7 µM (inactive), the IC50 (Orexin receptor type 2 [15]) was > 50 µM (inactive) and the IC50 (CHO-K1) was > 66.2 µM (inactive).

With COc1ccc(OC)c(CNC(=O)c2cc(N)c(C#N)c(OC(C)C)n2)c1 the Ki [16] was 5.01 µM (active), the Ki [17] was > 10 µM (inactive) and the Ki [18] was > 7.94 µM (inactive). The Ki (Ephrin type-A receptor 2) was > 7.94 µM (inactive), the Ki [19] was > 7.94 µM (inactive) and the Ki [20] was > 7.94 µM (inactive). For the same compound, the Ki [21] was > 7.94 µM (inactive), the Ki [22] was > 7.94 µM (inactive) and the Ki [23] was > 6.31 µM (inactive). The Ki (Aurora kinase A) was > 6.31 µM (inactive), the Ki [24] was > 10 µM (inactive) and the Ki [25] was 6.31 µM (active). The Ki [26] was > 7.94 µM (inactive), the Ki [27] was 7.94 µM (active) and the Ki [28] was > 7.94 µM (inactive). The Ki [29] was > 7.94 µM (inactive), the Ki [30] was > 6.31 µM (inactive) and the Ki [10] was > 10 µM (inactive). The Ki [31] was 0.501 µM (active), the Ki [32] was 1 µM (active) and the Ki [33] was > 5.01 µM (inactive). For the same compound, the Ki [34] was > 7.94 µM (inactive), the Ki [35] was > 7.94 µM (inactive) and the Ki [36] was 1.58 µM (active). The Ki [37] was > 10 µM (inactive).

With CC(=O)Nc1cc(N)c(C#N)c(OCC(C)C)n1 the Ki [38] was 1.58 µM (active) and the Ki [39] was 6.31 µM (active).

In the case of Cc1noc(C)c1S(=O)(=O)Nc1ccc2c(c1)CC(=O)N([C@@H](C)CO)C[C@H](C)[C@H](CN(C)S(=O)(=O)c1ccc(F)cc1)O2, the AC50 [40] is reported as 19.5 µM (active).

In the case of C[C@@H]1CN([C@@H](C)CO)C(=O)c2cc(NC(=O)Nc3ccccc3)ccc2O[C@@H](C)CCCCO[C@H]1CN(C)S(=O)(=O)c1ccccc1F, the AC50 [41] is reported as 0.924 µM (active) and the AC50 [42] is reported as 0.641 µM (active).

In the case of c1ccc(-c2n[nH]cc2-c2ccncc2)cc1, the Ki [17] is reported as 10 µM (active), the Ki (Ephrin type-A receptor 2) is reported as > 20 µM (inactive) and the Ki [19] is reported as 10 µM (active). For the same compound, the Ki [43] was 2 µM (active), the Ki [44] was > 7.94 µM (inactive) and the Ki [20] was > 20 µM (inactive). For the same compound, the Ki [21] was > 20 µM (inactive), the Ki [22] was > 20 µM (inactive) and the Ki [45] was 1 µM (active). For the same compound, the Ki [23] was > 15.8 µM (inactive), the Ki (Aurora kinase A) was 6.31 µM (active) and the Ki [24] was > 25.1 µM (inactive). The Ki [25] was 7.94 µM (active), the Ki [26] was 0.794 µM (active) and the Ki [27] was > 25.1 µM (inactive). For the same compound, the Ki [46] was > 5.01 µM (inactive), the Ki [28] was > 20 µM (inactive) and the Ki [47] was > 3.98 µM (inactive). The Ki [29] was 2.51 µM (active), the Ki [30] was 7.94 µM (active) and the Ki [10] was 20 µM (active). The Ki [31] was 2.51 µM (active), the Ki [48] was > 10 µM (inactive) and the Ki [32] was > 3.16 µM (inactive). The Ki [49] was 10 µM (active), the Ki [33] was > 12.6 µM (inactive) and the Ki [34] was > 20 µM (inactive). For the same compound, the Ki [36] was 0.251 µM (active) and the Ki [37] was 1.26 µM (active).

In the case of O=[N+]([O-])c1cc(/C=N\Nc2ccccn2)ccc1Cl, the EC50 [50] is reported as 9.33 µM (active).
